The values that follow come from patent US8415156B2, “Recombinant laminin-521” (Biolamina AB, priority 2010, dated 2013).

Holding throughout (assay type): cell-based, human
Assay [1] has as its system hES cells. As to the kind of experiment: Cell survival assay, 24 hours (Example 2). The note with it: for survival of hES cells plated from single cell suspension after 24 hours: O3 medium, absence of ROCK inhibitor. The protocol:
Tissue cell culture plates were coated overnight at 4° C. with sterile solutions of the ECM proteins, such as human recombinant LN-521, all at a concentration of 30 μg/ml (5 μg/cm^2). Control plates were coated with Matrigel according to the STEMCELL Technologies' instructions. Prior to use, dishes were pre-warmed in an incubator for one hour after which prewarmed O3 medium was added without additional washing of the dish. After applying a fresh LN-521 solution to a new dish, the remaining LN-521 solution could be used at least once more. All the adhesion, survival, and inhibition of survival experiments were carried out using fresh coating materials.
Briefly, 96-well plates were coated by extracellular matrix proteins as described above and blocked by O3 medium containing bovine serum albumin. The ES cells were plated at cell density of 50,000 cells/cm^2 onto extracellular matrix-coated plates and left to adhere for 1 hour in a cell incubator. After that the plates were washed 3 times with the medium to remove the non-adherent cells, and then the adherent cells were fixed for 20 minutes by 5% glutaraldehyde, stained by 0.1% Crystal Violet. (Kebo Lab, Spanga, Sweden, www.kebolab.se). After one hour and 3 washes with water, Crystal Violet was extracted with 10% acetic acid and quantified by measuring optical density at 570 nm. All the experiments were performed in quadruplicate.
The survival assay was performed as described for the cell adhesion assay above, except that the cells were left in the cell incubator for 24 hours. For inhibition of survival assay, the cells were kept in a medium with function blocking antibodies at the concentrations recommended by the manufacturer or pathway inhibitors at concentrations indicated in the text for 30 minutes, and then plated on the coated dishes. All the experiments were performed in quadruplicate.
Pluripotent hES cells express α1, α5, β1, β2 and γ1 laminin chains. To compare the adhesion and clonal survival of hES cells plated from single cell suspension to different coating substrata, hES cells growing as monolayers on LN-511 or as clusters on a feeder layer were trypsinized into single cell suspension in O3 medium and plated on cell culture dishes coated with Matrigel, LN-111, LN-511, LN-521 or a mixture of LN-511 and LN-521, in the absence or presence of a ROCK inhibitor (Y-27632) and analyzed after 24 hours.

Assay [2] relates to HS181 cells. As to the kind of experiment: Single cell survival / cell adhesion, 1 day after plating (Example 1). The procedure: Human ES cells were cultured on r-laminin-521-coated laboratory dishes in chemically defined O3 medium (described in Rodin et al., Nature Biotechnol., vol. 28, pp. 611-615 (2010)) at 37° C. in 5% CO2. Cells were routinely passed once every 10-12 days by exposure to Trypsin-EDTA solution (GIBCO Invitrogen) for 5 minutes at 37° C. They were then gently pipetted to break into single-cell suspension and defined trypsin inhibitor (GIBCO Invitrogen) was added. The cell suspension was centrifuged […], the supernatant discarded, the cell pellet resuspended in prewarmed O3 medium, and cells were then passed through a 40 μm sieve. After that cells were plated on new r-laminin-521-coated dishes at a concentration 30 Kcells/cm^2 (1:25-1:30 split ratio). Cells were fed once a day with fresh medium prewarmed in an incubator for 1 hour, except for the first day after a passage, when only a few drops of fresh medium were added. Control cells of the same line were cultured on Matrigel (BD Biosciences) in O3 medium as described in Rodin et al., Nature Biotechnol., vol. 28, pp. 611-615 (2010). Control cells were passaged in pieces.
Ninety-six-well tissue cell culture plates were coated overnight at 4° C. with sterile solutions of the ECM proteins mouse LN-111 (Invitrogen), human recombinant LN-511, and human recombinant LN-521, all at a concentration of 30 μg/ml (5 μg/cm^2). For control cells, BD Matrigel™ hESC qualified (BD Biosciences) was used according to the manufacturer's instructions.
The assay was performed as described (Extracellular Matrix Protocols, 2000). Briefly, 96-well plates were coated by extracellular matrix proteins as described above and blocked by O3 medium containing bovine serum albumin. The ES cells were plated at a cell density of 600 cell/mm^2 upon extracellular matrix-coated plates and were left to adhere for either 1 hour or 1 day at the cell incubator. Non-adherent cells were washed away, and adherent cells were fixed for 20 min by 5% glutaraldehyde, stained by 0.1% Crystal Violet.

Assay [3] has as its system hES cells. As to the kind of experiment: Clonal survival of individualized hES cells (Example 4). The following applies: mTeSR1. The protocol:
hES cells were plated in mTeSR1 medium on different coatings at a density of 250 cells per cm^2 and monitored after 5 days in culture using an alkaline phosphatase staining kit.
Next, combinations of laminin-521 and E-Cadherin were tested to determine whether the combinations could sustain clonal survival of the cells. Fixed amounts of laminin-521 were used for the cell culture dish coating in combination with titrated E-Cadherin.
Additional tests were performed to test the effects of various modifications to the mTeSR1 medium. A mixture of E-Cadherin to laminin-521 in a ratio of about 1:10 w/w was used to coat the plates. […] Time-lapse photography of the cells confirmed that laminin-521/E-Cadherin coatings facilitated cell survival through proliferation of the single cells, not through the aggregation of different cells.

Take “LN-121: human recombinant laminin with α1, β2 and γ1 chains produced in HEK293 cells”: the “survival of hES cells plated from single cell suspension after 24 hours” value (shortened to “survival of hES cells plated”) in assay [1] is “failed to survive”.
In the case of “LN-111: mouse laminin-111 (Invitrogen), indicated as LN-111 if not otherwise stated”, in assay [2] (O3 medium without any additives, completely dissociated HS181 cells), the “single cell survival / cells remaining attached 24 hours after plating” value is listed as “almost no cells remained attached”. Also, the “survival of hES cells plated” value in assay [1] was “did not survive”.
For the molecule “albumin: albumin of the mTeSR1 medium, concentration increased 2×”, the “effect of 2× increase in albumin concentration on clonal survival” value in assay [3] (laminin-521/E-Cadherin matrix) was “significantly improved clonal survival”.
For `C[C@@H](N)[C@H]1CC[C@H](C(=O)Nc2ccncc2)CC1` [Y-27632, reference compound], the “cells remaining attached after one day with ROCK inhibitor” value in assay [2] (O3 medium treated with Y-27632, 5 coatings) is on record as “remained attached on all 5 coatings”. In addition, the “cell shape of cells growing on LN-521 24 hours after plating” value in assay [1] (LN-521 row: absence of ROCK inhibitor, Y-27632 row: presence of ROCK inhibitor) is on record as “spindle or crescent like shape”. The “survival of hES cells after 24 hours in the presence of ROCK inhibitor” value in assay [1] (all coating surfaces) was “survived on all surfaces”.
Take “human recombinant LN-111: human recombinant laminin with α1, β1 and γ1 chains produced in HEK293 cells”: the “survival of hES cells plated” value in assay [1] is reported as “failed to survive”.

B1: E-Cadherin: epithelial-cadherin, most abundant cadherin isoform on the human ES cell surface (protein, UniProt P12830 155-882, looked up)
Cadherin-1: DWVIPPISCPENEKGPFPKNLVQIKSNKDKEGKVFYSITGQGADTPPVGVFIIERETGWLKVTEPLDRERIATYTLFSHAVSSNGNAVEDPMEILITVTDQNDNKPEFTQEVFKGSVMEGALPGTSVMEVTATDADDDVNTYNAAIAYTILSQDPELPDKNMFTINRNTGVISVVTTGLDRESFPTYTLVVQAADLQGEGLSTTATAVITVTDTNDNPPIFNPTTYKGQVPENEANVVITTLKVTDADAPNTPAWEAVYTILNDDGGQFVVTTNPVNNDGILKTAKGLDFEAKQQYILHVAVTNVVPFEVSLTTSTATVTVDVLDVNEAPIFVPPEKRVEVSEDFGVGQEITSYTAQEPDTFMEQKITYRIWRDTANWLEINPDTGAISTRAELDREDFEHVKNSTYTALIIATDNGSPVATGTGTLLLILSDVNDNAPIPEPRTIFFCERNPKPQVINIIDADLPPNTSPFTAELTHGASANWTIQYNDPTQESIILKPKMALEVGDYKINLKLMDNQNKDQVTTLEVSVCDCEGAAGVCRKAQPVEAGLQIPAILGILGGILALLILILLLLLFLRRRAVVKEPLLPPEDDTRDNVYYYDEEGGGEEDQDFDLSQLHRGLDARPEVTRNDVAPTLMSVPRYLPRPANPDEIGNFIDENLKAADTDPTAPPYDSLLVFDYEGSGSEAASLSSLNSSESDKDQDYDYLNEWGNRFKKLADMYGGGEDD
Consider B1, for which, in assay [3] (250 cells per cm^2, 5 days, alkaline phosphatase staining), the “clonal survival of individualized hES cells” value is “Neither laminin-521 nor E-Cadherin alone permitted efficient clonal survival”.
